This note sets out measurements from US20160184230A1, “MELT-PROCESSED POLYMERIC CELLULAR DOSAGE FORM” (priority 2014, published 2016).

The data set can be described thus: Compression tests of solid excipient (ASTM D695-10). The settings on record: compression-molded sample. In kind it is physicochemical. On the procedure: Compression tests were performed on pure PEG and PEO specimen. The ASTM standard test method for compressive properties of rigid plastics, ASTM D695-10, was used as the protocol to execute compression tests. The testing machine was a Zwick Roell Z2.5 with a 2.5 kN load cell (Zwick GmbH & Co. KG, Ulm, Germany), equipped with compression platens. A speed of 1.3 mm/min was applied for the platens to move relatively towards each other.

Some results are limits rather than exact numbers.

On to `OC[C@@H](O)[C@@H](O)[C@H](O)[C@H](O)CO` [Mannitol], for which the Compressive strength is reported as 0.8 MPa and the Strain at fracture is reported as <0.02.
